33 compounds from patent publication US8916555B2, “3,5-diaminopyrazole kinase inhibitors” (Axikin Pharmaceuticals, Inc., priority 2012, dated 2014) can be followed below.

Data set [1] has as its target T1, kinase domain protein of RC kinase (Homo sapiens, UniProt Q56UN5).
T1 sequence (Q56UN5 1061-1324 limits assumed): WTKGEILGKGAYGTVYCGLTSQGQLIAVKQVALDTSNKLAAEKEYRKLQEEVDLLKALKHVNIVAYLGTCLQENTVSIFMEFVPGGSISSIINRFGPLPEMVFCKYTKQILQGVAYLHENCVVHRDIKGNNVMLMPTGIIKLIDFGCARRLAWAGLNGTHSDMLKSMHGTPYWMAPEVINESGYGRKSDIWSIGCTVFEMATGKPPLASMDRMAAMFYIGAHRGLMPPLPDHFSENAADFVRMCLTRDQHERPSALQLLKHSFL
The data set is described as follows: Enzymatic assay for kinase inhibitory activity (Crebtide substrate, LANCE readout), kinase domain protein. Type of data set: biochemical. The following applies: test compound 1 μM, ATP 1 μM, Crebtide 50 nM. The method, then:
Solutions of a test compound, Crebtide (a substrate), a kinase, and ATP were prepared using 1×MAPK Buffer (50 mM HEPES, 1 mM EGTA, […], 10 mM MgCl2, 2 mM DTT, and 0.01% Tween 20).
To each well, the test compound (1 μL) was first added (in duplicate) to reach a final concentration of 1 μM or 1×IC50 of the compound. The kinase (5 μL) was then added to each well to reach a final concentration of […] for the kinase domain or […] for the full-length domain. Each plate included a positive and negative controls in duplicate wells. Crebtide (2.5 μL) was then added to each well in duplicate to reach a final concentration of 50 nM. If the full-length kinase was used, the plates were incubated for 45 min at room temperature before proceeding further. ATP (2.5 μL) was added to each well to reach a final concentration of 1 μM for the kinase domain and 3 μM for the full-length.
After the addition of ATP, the plates were incubated for 45 min at room temperature. During the incubation, an EDTA solution (40 mM) and anti-Crebtide ([…]) were prepared. Additionally, a detection buffer stock solution was diluted ten fold before use.
After the incubation, the anti-Crebtide (5 μL) and EDTA (5 μL) were added to each well to reach their final concentrations of […] and 10 mM, respectively. The plates were allowed to develop at room temperature for 45 min. The plates were then read at 665 nm and 615 nm using Perkin Elmer Lance machine.
The biological results of inhibition of the kinase domain protein of RC kinase are summarized in Tables 2 and 3, wherein A represents at least 50% inhibition of the RC kinase activity at 1 μM; B represents no greater than 50% but at least 20% inhibition of the RC kinase activity at 1 μM; C represents no greater than 20% but at least 5% inhibition of the RC kinase activity at 1 μM; and D represents no greater than 5% inhibition of the RC kinase activity at 1 μM.
On the technique in general: TR-FRET usually uses a lanthanide donor and a delayed reading to cut background.

Take `NC(=O)c1c(NCc2c(F)cccc2Cl)n[nH]c1NCc1ccc(O)cc1` [Compound D115]: the melting point (commonly the temperature of the solid-liquid transition) fell in the range of 215 to 218 °C. Also, the inhibition (as a rule, the percentage by which the read-out fell short of the control) at 1 µM in data set [1] was in the range of 5 to 20%.

On to `NC(=O)c1c(Nc2ccc(Cl)nc2)n[nH]c1NCc1ccc(O)cc1` [Compound D90, 3-((6-chloropyridin-3-yl)amino)-5-((4-hydroxybenzyl)amino)-1H-pyrazole-4-carboxamide], for which the melting point lay in the range of 221 to 225 °C. Also, the inhibition at 1 µM in data set [1] is not below 50%.

For `N#Cc1c(Nc2cccc(Cl)c2)n[nH]c1NCc1ccc(O)cc1` [Compound C31, 3-((3-chlorophenyl)amino)-5-((4-hydroxybenzyl)amino)-1H-pyrazole-4-carbonitrile], the melting point lay within 205 to 208 °C. Also, the inhibition at 1 µM in data set [1] was not above 5%.

`NC(=O)c1c(Nc2ccc(NC(=O)c3sc4cc(F)ccc4c3Cl)cc2)n[nH]c1NCc1ccc(O)cc1` [Compound D141, 3-((4-(3-chloro-6-fluorobenzo[b]thiophene-2-carboxamido)phenyl)amino)-5-((4-hydroxybenzyl)amino)-1H-pyrazole-4-carboxamide]: the melting point lay within 228 to 232 °C. The same compound registered an inhibition at 1 µM in data set [1] of 20 to 50%.

`Cc1ccc(Nc2n[nH]c(NCc3ccc(O)cc3)c2C(N)=O)cc1` [Compound D61, 5-((4-hydroxybenzyl)amino)-3-(p-tolylamino)-1H-pyrazole-4-carboxamide] displayed a melting point of 169 to 174 °C. The inhibition at 1 µM in data set [1] was not below 50%.

For the compound `CC(C)c1ccc(Nc2n[nH]c(NCc3ccc(O)cc3)c2C(N)=O)cc1` [Compound D137, 5-((4-hydroxybenzyl)amino)-3-((4-isopropylphenyl)amino)-1H-pyrazole-4-carboxamide], the melting point fell in the range of 200 to 204 °C. Besides, in data set [1], the inhibition at 1 µM lay within 20 to 50%.

Consider `COc1ccc(CNc2[nH]nc(Nc3cccnc3)c2C(N)=O)cc1` [Compound D151, 5-((4-methoxybenzyl)amino)-3-(pyridin-3-ylamino)-1H-pyrazole-4-carboxamide], for which the melting point fell in the range of 218 to 222 °C. Also, the inhibition at 1 µM in data set [1] was in the range of 20 to 50%.

The compound `COc1ccc(C(C)C)cc1CNc1[nH]nc(Nc2cccc(Cl)c2)c1C(N)=O` [Compound D94] displayed a melting point of 184 to 194 °C. Also, in data set [1], the inhibition at 1 µM is 20 to 50%.

Regarding `NC(=O)c1c(Nc2ccc(N)cc2)n[nH]c1NCc1ccc(O)cc1` [Compound D101, 3-((4-aminophenyl)amino)-5-((4-hydroxybenzyl)amino)-1H-pyrazole-4-carboxamide], the melting point was in the range of 190 to 193 °C. The same compound returned an inhibition at 1 µM in data set [1] not below 50%.

`NC(=O)c1c(Nc2ccc(Br)c(Cl)c2)n[nH]c1NCc1ccc(O)cc1` [Compound D160, 3-((4-bromo-3-chlorophenyl)amino)-5-((4-hydroxybenzyl)amino)-1H-pyrazole-4-carboxamide] displayed a melting point of 199 to 204 °C. The inhibition at 1 µM in data set [1] is 20 to 50%.

On to `NC(=O)c1c(Nc2cccc(Cl)c2)n[nH]c1NCc1cccs1` [Compound D95, 3-((3-chlorophenyl)amino)-5-((thiophen-2-ylmethyl)amino)-1H-pyrazole-4-carboxamide], for which the melting point fell in the range of 222 to 227 °C. In data set [1], this compound came in with an inhibition at 1 µM not above 5%.

Compound `NC(=O)c1c(Nc2ccc(C(=O)O)cc2)n[nH]c1NCc1ccc(O)cc1` [Compound D165, 4-((4-carbamoyl-5-((4-hydroxybenzyl)amino)-1H-pyrazol-3-yl)amino)benzoic acid] registered a melting point of 285 to 290 °C. In addition, the inhibition at 1 µM in data set [1] is not below 50%.

Compound `COc1ccccc1C(=O)Nc1ccc(Nc2n[nH]c(NCc3ccc(O)cc3)c2C(N)=O)cc1` [Compound D143, 5-((4-hydroxybenzyl)amino)-3-((4-(2-methoxybenzamido)phenyl)amino)-1H-pyrazole-4-carboxamide] showed a melting point of 208 to 211 °C. In data set [1], this compound had an inhibition at 1 µM not below 50%.

With `NC(=O)c1c(Nc2ccc(F)cc2)n[nH]c1NCc1ccc(O)cc1` [Compound D163], the melting point lay in the range of 204 to 207 °C. In addition, in data set [1], the inhibition at 1 µM is not below 50%.

The compound `CC(C)(C)c1ccc(Nc2n[nH]c(NCc3ccc(O)cc3)c2C(N)=O)cc1` [Compound D164, 3-((4-(tert-butyl)phenyl)amino)-5-((4-hydroxybenzyl)amino)-1H-pyrazole-4-carboxamide] had a melting point of 218 to 222 °C. This compound returned an inhibition at 1 µM in data set [1] not below 50%.

`COc1ccc(CNc2n[nH]c(NCc3ccc(O)cc3)c2C(N)=O)cn1` [Compound D112] returned a melting point of 178 to 180 °C. For the same compound, in data set [1], the inhibition at 1 µM fell in the range of 20 to 50%.

For `NC(=O)c1c(NCc2ccc(Cl)c(F)c2)n[nH]c1NCc1ccc(O)cc1` [Compound D122], the melting point lay within 204 to 207 °C. In data set [1], this compound showed an inhibition at 1 µM of 5 to 20%.

`CC1CCN(C2CCN(c3ccc(Nc4n[nH]c(NCc5ccc(O)cc5)c4C(N)=O)cc3)CC2)CC1` [Compound D102, 5-((4-hydroxybenzyl)amino)-3-((4-(4-methyl-[1,4′-bipiperidin]-1′-yl)phenyl)amino)-1H-pyrazole-4-carboxamide] had a melting point of 220 to 224 °C. The compound also had an inhibition at 1 µM in data set [1] not below 50%.

In turn, `NC(=O)c1c(Nc2ccc(N3CCOCC3)c(F)c2)n[nH]c1NCc1ccc(O)cc1` [Compound D100] showed a melting point of 208 to 211 °C. In data set [1], this compound returned an inhibition at 1 µM not below 50%.

As for `NC(=O)c1c(Nc2cccc(Cl)c2)n[nH]c1NCc1ccco1` [Compound D96, 3-((3-chlorophenyl)amino)-5-((furan-2-ylmethyl)amino)-1H-pyrazole-4-carboxamide], the melting point fell in the range of 214 to 220 °C. In addition, the inhibition at 1 µM in data set [1] was in the range of 20 to 50%.

`NC(=O)c1c(Nc2ccc(C(F)(F)F)nc2)n[nH]c1NCc1ccc(O)cc1` [Compound D91] showed a melting point of 259 to 265 °C. Moreover, in data set [1], the inhibition at 1 µM was not below 50%.

The compound `NC(=O)c1c(Nc2ccc(-c3ccccn3)cc2)n[nH]c1NCc1ccc(O)cc1` [Compound D109] returned a melting point of 217 to 221 °C. In data set [1], the inhibition at 1 µM is not below 50%.

In turn, `N#Cc1c(Nc2cccc(Cl)c2)n[nH]c1NCc1ccc(Oc2ccc(C(F)(F)F)cn2)cc1` [Compound C2] gave a melting point of 62 to 72 °C. In addition, the “Activity (inhibition of the RC kinase activity at 1 μM)” value in data set [1] is “B (no greater than 50% but at least 20% inhibition of the RC kinase activity at 1 μM)”.

For `NC(=O)c1c(Nc2cccnc2)n[nH]c1NCc1ccccc1` [Compound D155, 5-(benzylamino)-3-(pyridin-3-ylamino)-1H-pyrazole-4-carboxamide], the melting point lay within 228 to 231 °C. The compound further came in with an inhibition at 1 µM in data set [1] of 5 to 20%.

On to `CC(C)(C)OC(=O)Nc1ccc(Nc2n[nH]c(NCc3ccc(O)cc3)c2C(N)=O)cc1` [Compound D135], for which the melting point lay within 222 to 226 °C. Moreover, the inhibition at 1 µM in data set [1] was not below 50%.

`COc1ccc(CNc2[nH]nc(Nc3cccc(Cl)c3)c2C(N)=O)c(C)c1` [Compound D73] had a melting point of 195 to 199 °C. Moreover, the inhibition at 1 µM in data set [1] is 20 to 50%.

`CC1CCN(C2CCN(c3n[nH]c(NCc4ccc(O)cc4)c3C(N)=O)CC2)CC1` [Compound D88] showed an inhibition at 1 µM in data set [1] of 20 to 50%.

Turning to `COc1ncc(CNc2[nH]nc(Nc3cccc(Cl)c3)c2C(N)=O)cn1` [Compound D87], the inhibition at 1 µM in data set [1] is not above 5%.

As to `NC(=O)c1c(Nc2ccc(NC(=O)c3ccccc3OC(F)(F)F)cc2)n[nH]c1NCc1ccc(O)cc1` [Compound D147], the “Activity (inhibition of the RC kinase activity at 1 μM)” value in data set [1] was “A (at least 50% inhibition of the RC kinase activity at 1 μM)”.

On to `NC(=O)c1c(Nc2ccc(Cc3ccccc3)cc2)n[nH]c1NCc1ccc(O)cc1` [Compound D83, 3-((4-benzylphenyl)amino)-5-((4-hydroxybenzyl)amino)-1H-pyrazole-4-carboxamide], for which the inhibition at 1 µM in data set [1] was not below 50%.

On to `Cc1cc(C)cc(CNc2[nH]nc(Nc3cccc(Cl)c3)c2C(N)=O)c1` [Compound D78], for which the inhibition at 1 µM in data set [1] fell in the range of 5 to 20%.

In data set [1], `N#Cc1c(Nc2cccc(Cl)c2)n[nH]c1NCc1c(O)cccc1Cl` [Compound C25] came in with an inhibition at 1 µM of 20 to 50%.

`COc1ccc(C(=O)Nc2ccc(Nc3n[nH]c(NCc4ccc(O)cc4)c3C(N)=O)cc2)cc1OC` [Compound D129] came in with an inhibition at 1 µM in data set [1] not below 50%.
